Experimental data: ChEMBL document CHEMBL1156294, “Novel inhibitors of basal glucose transport as potential anticancer agents” (2010)

How the values were obtained:
Format in all cases: functional
HeLa = test: Inhibition of basal glucose transport in human HeLa cells assessed as inhibition of [3H]2-deoxyglucose uptake at 30 uM after 30 mins by scintillation counting
RKO = test: Inhibition of basal glucose transport in human RKO cells assessed as inhibition of [3H]2-deoxyglucose uptake at 30 uM after 30 mins by scintillation counting
MCF7 = test: Inhibition of basal glucose transport in human MCF7 cells assessed as inhibition of [3H]2-deoxyglucose uptake at 30 uM after 30 mins by scintillation counting
NCI-H1299 = test: Inhibition of basal glucose transport in human H1299 cells assessed as inhibition of [3H]2-deoxyglucose uptake at 30 uM after 30 mins by scintillation counting relative to control
[1] = Cytotoxicity against human H1299 cells at 30 uM after 48 hrs by MTT assay relative to control; details: NCI-H1299, 48 h, read-out: GI

| SMILES | inhibition at 30 µM (HeLa) | inhibition at 30 µM (RKO) | inhibition at 30 µM (MCF7) | inhibition at 30 µM (NCI-H1299) | inhibition of growth at 30 µM [1] |
| --- | --- | --- | --- | --- | --- |
| COc1cccc(OC(=O)c2cc(O)c(O)c(O)c2)c1OC(=O)c1cc(O)c(O)c(O)c1 | 46.3% | 57.2% | 33% | 58.4% | 36% |
| O=C(Oc1ccc(Cl)cc1OC(=O)c1cc(O)c(O)c(O)c1)c1cc(O)c(O)c(O)c1 | – | – | – | 84.4% | – |
| O=C(Oc1ccccc1OC(=O)c1ccc(O)cc1)c1ccc(O)cc1 | – | – | – | 57.5% | – |
| O=C(Oc1cccc(OC(=O)c2cccc(O)c2)c1OC(=O)c1cccc(O)c1)c1cccc(O)c1 | – | – | – | 99.7% | 59.3% |
| COc1cccc(OC(=O)c2cccc(O)c2)c1OC(=O)c1cccc(O)c1 | – | – | – | 79% | – |
| O=C(Oc1ccc(Cl)cc1OC(=O)c1ccccc1O)c1ccccc1O | – | – | – | 51.6% | 26.6% |
| O=C(Oc1ccc(Cl)cc1OC(=O)c1cccc(O)c1)c1cccc(O)c1 | – | – | – | 93.1% | 44.5% |
| COc1cccc(OC(=O)c2cc(O)cc(O)c2)c1OC(=O)c1cc(O)cc(O)c1 | – | – | – | 69.4% | – |
| O=C(Oc1cccc(F)c1OC(=O)c1ccccc1O)c1ccccc1O | – | – | – | 51% | – |
| O=C(Oc1cccc(OC(=O)c2ccc(O)cc2)c1OC(=O)c1ccc(O)cc1)c1ccc(O)cc1 | – | – | – | 88.7% | 34.8% |
| O=C(Oc1cccc(OC(=O)c2ccc(O)c(O)c2)c1OC(=O)c1ccc(O)c(O)c1)c1ccc(O)c(O)c1 | – | – | – | 94.7% | 42.2% |
| COc1cccc(OC(=O)c2ccc(O)c(O)c2)c1OC(=O)c1ccc(O)c(O)c1 | – | – | – | 0% | 32.4% |
| O=C(Oc1cccc(F)c1OC(=O)c1cc(O)c(O)c(O)c1)c1cc(O)c(O)c(O)c1 | – | – | – | 81.1% | – |
| O=C(Oc1ccccc1OC(=O)c1cc(O)c(O)c(O)c1)c1cc(O)c(O)c(O)c1 | – | – | – | 32.1% | – |
| COc1cc(C(=O)Oc2cccc(OC)c2OC(=O)c2cc(OC)c(OC)c(OC)c2)cc(OC)c1OC | – | – | – | 33.3% | 22.2% |
| COc1cc(C(=O)Oc2ccc(Cl)cc2OC(=O)c2cc(OC)c(OC)c(OC)c2)cc(OC)c1OC | – | – | – | 1.7% | 20.6% |
| COc1cc(C(=O)Oc2cccc(F)c2OC(=O)c2cc(OC)c(OC)c(OC)c2)cc(OC)c1OC | – | – | – | 7.9% | 19.6% |

| SMILES | inhibition at 30 µM (HeLa) | inhibition at 30 µM (RKO) | inhibition at 30 µM (MCF7) | inhibition at 30 µM (NCI-H1299) | inhibition of growth at 30 µM [1] |
| --- | --- | --- | --- | --- | --- |
| O=C(Oc1cccc(F)c1OC(=O)c1ccc(O)cc1)c1ccc(O)cc1 | – | – | – | 92.6% | 35.9% |
| COc1cccc(C(=O)Oc2cccc(OC(=O)c3cccc(OC)c3)c2OC(=O)c2cccc(OC)c2)c1 | – | – | – | 66.2% | – |
| COc1cccc(C(=O)Oc2cccc(OC)c2OC(=O)c2cccc(OC)c2)c1 | – | – | – | 32.1% | 18.3% |
| O=C(Oc1cccc(OC(=O)c2cc(O)cc(O)c2)c1OC(=O)c1cc(O)cc(O)c1)c1cc(O)cc(O)c1 | – | – | – | 98.7% | 41% |
| O=C(Oc1ccc(Cl)cc1OC(=O)c1cc(O)cc(O)c1)c1cc(O)cc(O)c1 | – | – | – | 95.2% | 38.8% |
| O=C(Oc1cccc(F)c1OC(=O)c1cc(O)cc(O)c1)c1cc(O)cc(O)c1 | – | – | – | 94% | 35% |
| O=C(Oc1cccc(OC(=O)c2cc(O)c(O)c(O)c2)c1OC(=O)c1cc(O)c(O)c(O)c1)c1cc(O)c(O)c(O)c1 | 36% | 58.1% | 60.4% | 86.1% | 39.9% |
| COc1cc(C(=O)Oc2cccc(OC(=O)c3cc(OC)c(OC)c(OC)c3)c2OC(=O)c2cc(OC)c(OC)c(OC)c2)cc(OC)c1OC | – | – | – | 41.1% | – |
| O=C(Oc1ccc(Cl)cc1OC(=O)c1ccc(O)c(O)c1)c1ccc(O)c(O)c1 | – | – | – | 94.4% | 45.2% |
| O=C(Oc1cccc(F)c1OC(=O)c1ccc(O)c(O)c1)c1ccc(O)c(O)c1 | – | – | – | 88.7% | 41.5% |
| COc1cccc(OC)c1C(=O)Oc1cccc(OC(=O)c2c(OC)cccc2OC)c1OC(=O)c1c(OC)cccc1OC | – | – | – | 75.8% | – |
| COc1ccc(C(=O)Oc2cccc(OC(=O)c3ccc(OC)c(OC)c3)c2OC(=O)c2ccc(OC)c(OC)c2)cc1OC | – | – | – | 0% | 10% |
| O=C(Oc1cccc(OC(=O)c2ccccc2O)c1OC(=O)c1ccccc1O)c1ccccc1O | – | – | – | 74.7% | – |
| COc1cccc(OC(=O)c2ccccc2O)c1OC(=O)c1ccccc1O | – | – | – | 50.5% | 18% |
| COc1cccc(OC(=O)c2ccc(O)cc2)c1OC(=O)c1ccc(O)cc1 | – | – | – | 86.5% | 36.6% |
| O=C(Oc1ccc(Cl)cc1OC(=O)c1ccc(O)cc1)c1ccc(O)cc1 | – | – | – | 79% | – |
